Measurements: PubChem BioAssay AID214 (DTP/NCI, 2004)
“And” between values parts separate entries of the source, which are not always exact repeats. Identical values can stand only once. Records with an inconclusive call do not appear.

Test system: B6C3F1 mice, colon carcinoma 38 s.c., T/C
Assay: NCI In Vivo Anticancer Drug Screen. Data for tumor model Colon Carcinoma 38 (subcutaneous) in B6C3F1 mice
Settings: higher = larger tumour
Method: The antitumor activity of compounds was measured in mice bearing transplantable tumors. Survival or tumor size were measured and the results are expressed as the measurement made in the treated group (T) divided by the measurement made in the vehicle treated control group (C). The tumor model used in this assay is Colon Carcinoma 38 (subcutaneous) in B6C3F1 mice

O=C(O)Cc1cccc2c(=O)cc(-c3ccccc3)oc12
T/C (endpoint: median tumor weight (est.), dose: 33.0 mg/kg/injection, schedule: Q07DX002 (ip), vehicle: suspension in saline): 67 % of control | T/C (endpoint: median tumor weight (est.), dose: 63.0 mg/kg/injection, schedule: Q07DX002 (ip), vehicle: clinical formulation): 109 % of control | T/C (endpoint: median tumor weight (est.), dose: 63.0 mg/kg/injection, schedule: Q07DX002 (ip), vehicle: sodium bicarbonate): 100 % of control | T/C (endpoint: median tumor weight (est.), dose: 63.0 mg/kg/injection, schedule: Q07DX002 (iv), vehicle: clinical formulation): 114 % of control | T/C (endpoint: median tumor weight (est.), dose: 63.0 mg/kg/injection, schedule: Q07DX002 (iv), vehicle: sodium bicarbonate): 90 % of control | T/C (endpoint: median tumor weight (est.), dose: 66.0 mg/kg/injection, schedule: Q07DX002 (ip), vehicle: suspension in saline): 89 % of control | T/C (endpoint: median tumor weight (est.), dose: 84.0 mg/kg/injection, schedule: Q07DX002 (ip), vehicle: clinical formulation): 91 % of control | T/C (endpoint: median tumor weight (est.), dose: 84.0 mg/kg/injection, schedule: Q07DX002 (ip), vehicle: sodium bicarbonate): 155 % of control | T/C (endpoint: median tumor weight (est.), dose: 84.0 mg/kg/injection, schedule: Q07DX002 (iv), vehicle: clinical formulation): 67 % of control | T/C (endpoint: median tumor weight (est.), dose: 84.0 mg/kg/injection, schedule: Q07DX002 (iv), vehicle: sodium bicarbonate): 82 % of control | T/C (endpoint: median tumor weight (est.), dose: 100.0 mg/kg/injection, schedule: Q07DX002 (ip), vehicle: suspension in saline): 90 % of control | T/C (endpoint: median tumor weight (est.), dose: 112.0 mg/kg/injection, schedule: Q07DX002 (ip), vehicle: clinical formulation): 95 % of control | T/C (endpoint: median tumor weight (est.), dose: 112.0 mg/kg/injection, schedule: Q07DX002 (iv), vehicle: clinical formulation): 74 % of control | T/C (endpoint: median tumor weight (est.), dose: 112.0 mg/kg/injection, schedule: Q07DX002 (iv), vehicle: sodium bicarbonate): 84 % of control and 102 % of control | T/C (endpoint: median tumor weight (est.), dose: 128.0 mg/kg/injection, schedule: Q07DX002 (ip), vehicle: water): 79 % of control | T/C (endpoint: median tumor weight (est.), dose: 150.0 mg/kg/injection, schedule: Q07DX002 (ip), vehicle: clinical formulation): 14 % of control | T/C (endpoint: median tumor weight (est.), dose: 150.0 mg/kg/injection, schedule: Q07DX002 (ip), vehicle: sodium bicarbonate): 101 % of control | T/C (endpoint: median tumor weight (est.), dose: 150.0 mg/kg/injection, schedule: Q07DX002 (ip), vehicle: suspension in saline): 10 % of control | T/C (endpoint: median tumor weight (est.), dose: 150.0 mg/kg/injection, schedule: Q07DX002 (iv), vehicle: clinical formulation): 47 % of control | T/C (endpoint: median tumor weight (est.), dose: 150.0 mg/kg/injection, schedule: Q07DX002 (iv), vehicle: sodium bicarbonate): 57 % of control | T/C (endpoint: median tumor weight (est.), dose: 160.0 mg/kg/injection, schedule: Q07DX002 (ip), vehicle: water): 81 % of control | T/C (endpoint: median tumor weight (est.), dose: 200.0 mg/kg/injection, schedule: Q07DX002 (ip), vehicle: sodium bicarbonate): 79 % of control and 87 % of control | T/C (endpoint: median tumor weight (est.), dose: 200.0 mg/kg/injection, schedule: Q07DX002 (ip), vehicle: water): 25 % of control | T/C (endpoint: median tumor weight (est.), dose: 250.0 mg/kg/injection, schedule: Q07DX002 (ip), vehicle: water): 13 % of control | T/C (endpoint: median tumor weight (est.), dose: 267.0 mg/kg/injection, schedule: Q07DX002 (iv), vehicle: sodium bicarbonate): 77 % of control | T/C (endpoint: median tumor weight (est.), dose: 356.0 mg/kg/injection, schedule: Q07DX002 (iv), vehicle: sodium bicarbonate): 77 % of control | T/C (endpoint: optimum tumor weight change, dose: 128.0 mg/kg/injection, schedule: Q07DX002 (ip), vehicle: water): 78 % of control | T/C (endpoint: optimum tumor weight change, dose: 160.0 mg/kg/injection, schedule: Q07DX002 (ip), vehicle: water): 50 % of control | T/C (endpoint: optimum tumor weight change, dose: 200.0 mg/kg/injection, schedule: Q07DX002 (ip), vehicle: water): 72 % of control | T/C (endpoint: optimum tumor weight change, dose: 250.0 mg/kg/injection, schedule: Q07DX002 (ip), vehicle: water): 20 % of control

COc1ccc(OC)c(Cc2cnc3nc(N)nc(N)c3c2C)c1
T/C (endpoint: median tumor weight (est.), dose: 25.0 mg/kg/injection, schedule: Q07DX002 (ip), vehicle: water): 72 % of control | T/C (endpoint: median tumor weight (est.), dose: 50.0 mg/kg/injection, schedule: Q07DX002 (ip), vehicle: water): 104 % of control

O=C(c1cccnc1)c1cc(-c2ccccn2)c(=O)n2ccccc12
T/C (endpoint: median tumor weight (est.), dose: 200.0 mg/kg/injection, schedule: Q07DX002 (ip), vehicle: saline): 75 % of control | T/C (endpoint: median tumor weight (est.), dose: 400.0 mg/kg/injection, schedule: Q07DX002 (ip), vehicle: saline): 83 % of control | T/C (endpoint: median tumor weight (est.), dose: 800.0 mg/kg/injection, schedule: Q07DX002 (ip), vehicle: saline): 88 % of control
